This is an account of results in patent US20250296909A1, “NOVEL BENZENE DERIVATIVE AND IMMUNOSUPPRESSION-RELATED USE THEREOF” (PROVIBIO CO., LTD., priority 2021, published 2025).

Data set [1] has as its system spleen T cells. The data set is described as follows: T cell proliferation inhibition (CFSE, FACS), CD3/CD28-activated spleen T cells. Type of data set: cell-based, C57BL/6 mice. The conditions noted are these: for inhibition at 10 µM / inhibition at 30 µM / inhibition at 50 µM: Mus musculus, T-cell, read-out: Proliferation inhibition rate (%). The method, then:
To investigate whether the compounds obtained in the Preparation Example have an inhibitory effect on T cell proliferation, the T cell proliferation was determined ex vivo using the fluorescent dye carboxyfluorescein diacetate succinimidyl ester (CFSE), which binds to intracellular molecules by covalent bonds.
Spleens were harvested and minced from C57BL/6 mice at 7 weeks of age, and then single cells were isolated using a strainer (40 μm pore size, SPL). Red blood cells were removed using ACK (Ammonium-Chloride-Potassium) lysis buffer to isolate only leukocytes. Subsequently, CD90.2 microbeads (130-121-278, Miltenyi Biotech.) were added, and subjected to react at 4° C. for 20 minutes. After that, spleen T cells were isolated using a MACS Magnetic Stand and LS column. The isolated T cells from the spleen were resuspended in 1 mL of Free media (RPMI-1640+200 U/mL penicillin+200 μg/mL streptomycin), followed by the addition of 0.3 μL of CFSE (10 mM), and reacted at 37° C. for 5 minutes. Subsequently, 10 mL of Free media was added to stop the reaction, and the cells were centrifuged to obtain the cell pellet. RPMI 1640 medium containing 10% FBS, 100 U/mL penicillin, and 100 μg/mL streptomycin was added to suspend the cells, and 2×10^5 cells per well were seeded into a 96-well plate and T cells were activated by treatment with CD3 and CD28 antibodies (each at 0.5 μg/mL).
The compound diluted in DMSO was treated in triplicate at concentrations of 10 μM, 30 μM, and 50 μM, respectively. After incubation at 37° C. with 5% CO2 for 3 days, cell proliferation levels were determined using a FACS Canto machine.
In the FACS graph of FIG. 1, the y-axis represents the quantity (number) of cells, while the x-axis represents the fluorescence level of the cells. […] This reduction in CFSE fluorescence results in a leftward shift along the x-axis in the graph. This indicates cell proliferation.
To collectively indicate the proliferation inhibition rate for the experimental results, the relative value of the proliferation amount after compound administration to the proliferation amount after CD3/CD28+DMSO administration was calculated. Subsequently, it was converted into an inhibition amount and expressed as a percentage, thereby determining the proliferation inhibition rate. Specifically, the proliferation inhibition rate was calculated as follows: […]

Data set [2] deals with T lymphocyte cell line Jurkat E6-1. The data set is described as follows: Cytotoxicity experiment (CCK-8, relative cell survival). It counts as cell-based. Particulars: 24 hours, untreated cells = 100%. The method, then: To evaluate the cytotoxicity of the compound according to the present invention, the following experiment was conducted.
The T lymphocyte cell line Jurkat E6-1, purchased from the Korean Cell Line Bank, was cultured in RPMI-1640 medium comprising 10% FBS, 100 U/mL penicillin, and 100 μg/mL streptomycin. After culturing, the cells were harvested and centrifuged at 1,300 rpm for 5 minutes. After removal of the supernatant, the cells were resuspended in the same medium at a concentration of approximately 2.2×10^5 cells/mL, and 90 μL of the cell suspension was distributed per well into a 96-well plate (Costar 96 well cell culture plate, Corning). After treating 10 μL of each compound at different concentrations onto the respective wells of the plate, it was cultured for 24 hours at 37° C. in a 5% CO2 incubator. Subsequently, 10 μL of CCK-8 was added to each well, and it was cultured again for 2 hours at 37° C. in a 5% CO2 incubator. Absorbance was then measured at 450 nm to determine the relative cell survival rate compared to untreated cells, as shown in Table 4.
The values listed in Table 4 represent the relative cell survival rates in the groups treated with each compound at different concentrations, with the cell survival rate of untreated cells set as 100%.

[3] abbreviates: Table 3 (compounds not belonging to Formula 1), 10 μM.
[4] abbreviates: Table 3 (compounds not belonging to Formula 1), 30 μM.
[5] abbreviates: Table 3 (compounds not belonging to Formula 1), 50 μM.
Setting [6] is: 72 h, Table 2, 10 μM, 3 days, relative to CD3/CD28+DMSO.
The mark [7] stands for this setting: 72 h, Table 2, 30 μM, 3 days, relative to CD3/CD28+DMSO.
[8] abbreviates: 72 h, Table 2, 50 μM, 3 days, relative to CD3/CD28+DMSO.
[9] abbreviates: Table 2, 10 μM, 3 days, relative to CD3/CD28+DMSO.
The mark [10] stands for this setting: Table 2, 30 μM, 3 days, relative to CD3/CD28+DMSO.
Where [11] appears, read: Table 2, 50 μM, 3 days, relative to CD3/CD28+DMSO.

The structures appear in SMILES notation. Read-outs that look alike come from different tables or passages of the source.

Consider `O=C(Nc1ccccc1)c1ccncc1Br` [Compound 1], for which, in data set [1] (setting [3]), the inhibition at 10 µM worked out at 9%. Also, in data set [1] (setting [4]), the inhibition at 30 µM is 6%. Further, the inhibition at 50 µM in data set [1] (setting [5]) stood at 7%.

For the compound `Cc1ccccc1NC(=O)c1ccccc1Br` [Compound 2], the inhibition at 10 µM in data set [1] (setting [3]) came to 11%. The inhibition at 30 µM in data set [1] (setting [4]) is 10%. The inhibition at 50 µM in data set [1] (setting [5]) is 11%.

Turning to `Cc1ccccc1NC(=O)c1ccccc1F` [Compound 3], the inhibition at 10 µM in data set [1] (setting [3]) was determined as 9%. Besides, in data set [1] (setting [4]), the inhibition at 30 µM was determined as 15%. Also, the inhibition at 50 µM in data set [1] (setting [5]) was determined as 18%.

`O=C(NCCCc1ccccc1)c1ccccc1Br` [Compound 4]: in data set [1] (setting [3]), the inhibition at 10 µM worked out at 23%. Also, in data set [1] (setting [4]), the inhibition at 30 µM stood at 12%. The inhibition at 50 µM in data set [1] (setting [5]) came out at 16%.

In the case of `O=C(Nc1ccccc1Br)c1ccccc1Br` [Compound 9], the inhibition at 10 µM in data set [1] (setting [3]) came to 0%. Moreover, the inhibition at 30 µM in data set [1] (setting [4]) worked out at 0%. Moreover, the inhibition at 50 µM in data set [1] (setting [5]) worked out at 0%. Further, the “cell proliferation read by FACS (FIG. 2)” value in data set [1] (even at a concentration of 50 μM) is reported as “no inhibition of cell proliferation”.

With `CCCCCCCCCNC(=O)/C=C/c1ccccc1Br` [Compound 10], the values for the inhibition at 10 µM in data set [1] (setting [6]) and in data set [1] (setting [3]) were 15% and 5%, respectively. In addition, the inhibition at 30 µM came out at 72% in data set [1] (setting [7]) and 9% in data set [1] (setting [4]). In addition, the results for the inhibition at 50 µM in data set [1] (setting [8]) and in data set [1] (setting [5]) were 92% and 3%, respectively. In addition, the “Relative cell survival rate (%)” value worked out at 91% in data set [2] (10 μM), 88% in data set [2] (20 μM), 85% in data set [2] (30 μM) and 83% in data set [2] (50 μM).

Turning to `CCCCCCCCCCCCNC(=O)c1ncccc1Cl` [Compound 11], the inhibition at 10 µM in data set [1] (setting [6]) turned out to be 10%. Besides, the inhibition at 30 µM in data set [1] (setting [7]) was determined as 62%. Further, in data set [1] (setting [8]), the inhibition at 50 µM was found to be 99%.

`CCCCCCCCCCCCNC(=O)c1ccnc(C)c1` [Compound 15]: the inhibition at 10 µM in data set [1] (setting [6]) stood at 10%. The inhibition at 30 µM in data set [1] (setting [7]) is 35%. The inhibition at 50 µM in data set [1] (setting [8]) came to 90%.

As to `O=C(NCCCCCCCCCC1CO1)c1ccccc1Br` (centres unmarked) [Compound 17], the “Relative cell survival rate (%)” value in data set [2] (10 μM) was 106%; in data set [2] (20 μM), 80%; in data set [2] (30 μM), 80%; in data set [2] (50 μM), 66%.

Regarding `CCCCCCCCCCCCNC(=O)c1cccc2ccccc12` [Compound 18], the “Relative cell survival rate (%)” value in data set [2] (10 μM) was found to be 102%; in data set [2] (20 μM), 101%; in data set [2] (30 μM), 99%; in data set [2] (50 μM), 99%.

Consider `CCCCCCCCCCCCNC(=O)c1nccc2ccccc12` [Compound 20], for which the “Relative cell survival rate (%)” value is 113% in data set [2] (10 μM), 108% in data set [2] (20 μM), 107% in data set [2] (30 μM) and 105% in data set [2] (50 μM).

As to `CCCCCCCCCCCCNC(=O)c1ccc2cccc(O)c2n1` [Compound 21], the “Relative cell survival rate (%)” value was found to be 101% in data set [2] (10 μM), 106% in data set [2] (20 μM), 109% in data set [2] (30 μM) and 124% in data set [2] (50 μM).

Turning to `CCCCCCCCCCCCNC(=O)c1ccc2ccccc2n1` [Compound 22], the “Relative cell survival rate (%)” value in data set [2] (10 μM) was determined as 42%; in data set [2] (20 μM) it was 42%; in data set [2] (30 μM), 39%; in data set [2] (50 μM), 36%.

On to `CCCCCCCCCCCCNC(=O)c1cc2ccccc2cc1N` [Compound 23], for which the “Relative cell survival rate (%)” value was 66% in data set [2] (10 μM), 62% in data set [2] (20 μM), 62% in data set [2] (30 μM) and 54% in data set [2] (50 μM).

For the compound `CCCCCCCCCCCCNC(=O)c1cccnc1SC` [Compound 24], the “Relative cell survival rate (%)” value in data set [2] (10 μM) stood at 71%; in data set [2] (20 μM), 68%; in data set [2] (30 μM) it was 61%; in data set [2] (50 μM), 54%.

As to `CCCCCCCCCCCCNC(=O)c1cc(Cl)cc(Cl)c1O` [Compound 28], the inhibition at 10 µM in data set [1] (setting [6]) is 11%. For the same compound, the inhibition at 30 µM in data set [1] (setting [7]) is 47%. Besides, in data set [1] (setting [8]), the inhibition at 50 µM is 91%.

`CCCCCCCCCCCCNC(=O)c1cccnc1OC` [Compound 32]: the inhibition at 10 µM in data set [1] (setting [6]) turned out to be 12%. The inhibition at 30 µM in data set [1] (setting [7]) was 42%. For the same compound, the inhibition at 50 µM in data set [1] (setting [8]) came out at 54%.

`CCCCCCCCCCCC(=O)Nc1ccccc1Br` [Compound 42]: the “Relative cell survival rate (%)” value is reported as 110% in data set [2] (10 μM), 109% in data set [2] (20 μM), 104% in data set [2] (30 μM) and 103% in data set [2] (50 μM).

For `CCCCCCCCCCC(CNCc1ccccc1Br)Cc1ccccc1Br` (centres unmarked) [Compound 44], the “Relative cell survival rate (%)” value in data set [2] (10 μM) came to 100%; in data set [2] (20 μM), 98%; in data set [2] (30 μM), 94%; in data set [2] (50 μM) it was 93%.

Consider `CCCCCCCCCCCCNS(=O)(=O)c1ccccc1N` [Compound 46], for which the “Proliferation inhibition rate (%)” value in data set [1] (setting [9]) is recorded as 47%; in data set [1] (setting [10]) it was 94%; in data set [1] (setting [11]), 93%.

As for `CCCCCC(=O)Nc1ccc(CNC(=O)c2ccccc2Br)cc1` [Compound 47], the “Relative cell survival rate (%)” value in data set [2] (10 μM) was 98%; in data set [2] (20 μM), 97%; in data set [2] (30 μM), 97%; in data set [2] (50 μM), 96%.

Take `CCCCCC(=O)Nc1ccccc1CNC(=O)c1ccccc1Br` [Compound 48]: the “Relative cell survival rate (%)” value in data set [2] (10 μM) turned out to be 100%; in data set [2] (20 μM), 99%; in data set [2] (30 μM), 99%; in data set [2] (50 μM) it was 98%.

As to `CCCCCC(=O)Nc1cccc(CNC(=O)c2ccccc2Br)c1` [Compound 49], the “Relative cell survival rate (%)” value in data set [2] (10 μM), in data set [2] (20 μM), in data set [2] (30 μM) and in data set [2] (50 μM) was 98% throughout.

Turning to `CCCCCCCCCCCCNC(=O)c1ccc(Cl)cc1Cl` [Compound 60], the inhibition at 10 µM in data set [1] (setting [6]) was found to be 10%. In addition, the inhibition at 30 µM in data set [1] (setting [7]) stood at 72%. Besides, the inhibition at 50 µM in data set [1] (setting [8]) came out at 98%.

Regarding `CCCCCCCCCCCCNS(=O)(=O)c1cnccc1O` [Compound 72], the inhibition at 10 µM in data set [1] (setting [6]) is 68%. In addition, in data set [1] (setting [7]), the inhibition at 30 µM was 80%. Moreover, the inhibition at 50 µM in data set [1] (setting [8]) was found to be 86%.

Regarding `CCCCCCCCCCCCNC(=O)c1ncccn1` [Compound 79], the inhibition at 10 µM in data set [1] (setting [6]) was 46%. Moreover, the inhibition at 30 µM in data set [1] (setting [7]) came out at 88%. Moreover, in data set [1] (setting [8]), the inhibition at 50 µM came out at 100%.

As to `CCCCCCCCCCCCNC(=O)c1cccnc1S` [Compound 80], the “Proliferation inhibition rate (%)” value in data set [1] (setting [9]) worked out at 43%; in data set [1] (setting [10]), 100%; in data set [1] (setting [11]), 100%.
